How the values were obtained:
Sortilin [1] = target: T1, Sortilin (Mus musculus, UniProt Q6PHU5); test: Creoptix (GCI) binding kinetics, mouse Sortilin; conditions: Species Mouse, screened at 1 µM, 25 degrees Celsius
T1 construct: purchased Bio-Techne Ltd 2934-ST-050
T1 sequence (Q6PHU5 76-753 limits assumed): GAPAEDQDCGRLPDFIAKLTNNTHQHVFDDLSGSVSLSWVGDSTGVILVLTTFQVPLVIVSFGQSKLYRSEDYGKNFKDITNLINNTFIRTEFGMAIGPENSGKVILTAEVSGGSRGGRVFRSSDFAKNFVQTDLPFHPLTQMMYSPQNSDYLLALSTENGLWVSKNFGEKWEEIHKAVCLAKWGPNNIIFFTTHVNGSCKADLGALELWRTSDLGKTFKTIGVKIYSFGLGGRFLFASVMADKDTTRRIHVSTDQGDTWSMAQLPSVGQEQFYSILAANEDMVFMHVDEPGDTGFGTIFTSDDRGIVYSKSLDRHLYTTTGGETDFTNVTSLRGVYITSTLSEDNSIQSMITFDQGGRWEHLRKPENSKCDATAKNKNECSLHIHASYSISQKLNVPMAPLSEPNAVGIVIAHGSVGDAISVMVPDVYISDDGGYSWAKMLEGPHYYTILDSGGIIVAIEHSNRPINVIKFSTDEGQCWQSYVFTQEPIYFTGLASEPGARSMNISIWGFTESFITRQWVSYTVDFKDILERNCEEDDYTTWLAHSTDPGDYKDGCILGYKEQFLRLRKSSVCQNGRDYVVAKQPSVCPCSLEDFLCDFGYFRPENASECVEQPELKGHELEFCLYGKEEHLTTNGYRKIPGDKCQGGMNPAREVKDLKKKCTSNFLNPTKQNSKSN
Method: (§1) Creoptix (GCI) method - using SEQ ID NO.4 (Murine sortillin)
(§2) A protein, bound to a surface, is bathed in a solution containing potential ligands giving rise to binding kinetics to generate Kon and Koff rates, as well as a Kd.
(§3) All buffers described were filtered using a 0.2µm filter (Product number: 10300461, Nalgene) and degassed for 15 minutes prior to use.
(§4) A flow cell temperature of 25 degrees Celsius was used throughout the experiment.
(§5) A 4PCH chip was conditioned across all flow cells using 0.2 X concentration running buffer (running buffer composition: 1XHBS-N, pH 7.4, 3.4 mM EDTA, 1% DMSO) using pre-set conditioning wizard (WAVE control software) injecting: 0.1 M borate, 1 M NaCl (pH 9) followed by three start-up injections of 0.2 X running buffer.
(§6) A buffer exchange was performed and 1x running buffer (1XHBS-N, pH 7.4, 3.4 mM EDTA, 1% DMSO) used during the immobilisation procedure: An initial injection of EDC/NHS (mixed in 1:1 ratio) was performed across all 4-flow cells to activate the surface for amine coupling of ligands.
(§7) Recombinant Sortilin aliquots were thawed quickly by hand and centrifuged at 13,300 rpm for 10 minutes. A 10 µg/ml protein solution was then made in pH 5.0 acetate and injected once for 20 minutes over flow-cells 2, 3 and 4 for human, human (flow cells 2 & 3), and mouse Sortilin respectively followed by a 60 second dissociation period.
(§8) A final 7-minute passivation injection of 50 mM tris was used across all flow cells.
(§9) A flow rate of 10 µl/min was used for all conditioning and immobilisation cycles.
(§10) Compounds were screened at 1 µM using the in-built 'intermediate binders' settings: 100 ul/min, 45 s baseline, 25 s association, 300 s dissociation, with blanks every 5th sample and a DMSO correction (1.5 % DMSO at the start and end of the experiment as well as every 20 cycles. An acquisition rate of 10 Hz was used throughout the experiment.
(§11) Compounds were screened at a final assay concentration of 1 µM and a final DMSO concentration was 1 %. To achieve this, compounds were diluted in DMSO from 10 mM stocks to 100 µM (100 x final assay concentration) then diluted 1:100 in running buffer which contained no DMSO to establish a final assay concentration of compound of 1 µM and a final DMSO concentration of 1 % [DMSO].
(§12) Compounds and DMSO were mixed by plate shaking at 1000 rpm for 60 seconds using a Bioshake instrument.
(§13) A flow rate of 100 µl/min was used throughout the experiment.
(§14) Data was evaluated using the RAPID kinetic analysis tool in the GCI WAVE_control software with data fitted using a standard 1:1 kinetic BioModel.

Sortilin [2] = target: T2, Sortilin (Homo sapiens, UniProt Q99523); test: Creoptix (GCI) binding kinetics, human Sortilin; conditions: Species Human, screened at 1 µM, 25 degrees Celsius
T2 construct: purchased Bio-Techne Ltd 3154-ST-050
T2 sequence (Q99523 78-755 limits assumed): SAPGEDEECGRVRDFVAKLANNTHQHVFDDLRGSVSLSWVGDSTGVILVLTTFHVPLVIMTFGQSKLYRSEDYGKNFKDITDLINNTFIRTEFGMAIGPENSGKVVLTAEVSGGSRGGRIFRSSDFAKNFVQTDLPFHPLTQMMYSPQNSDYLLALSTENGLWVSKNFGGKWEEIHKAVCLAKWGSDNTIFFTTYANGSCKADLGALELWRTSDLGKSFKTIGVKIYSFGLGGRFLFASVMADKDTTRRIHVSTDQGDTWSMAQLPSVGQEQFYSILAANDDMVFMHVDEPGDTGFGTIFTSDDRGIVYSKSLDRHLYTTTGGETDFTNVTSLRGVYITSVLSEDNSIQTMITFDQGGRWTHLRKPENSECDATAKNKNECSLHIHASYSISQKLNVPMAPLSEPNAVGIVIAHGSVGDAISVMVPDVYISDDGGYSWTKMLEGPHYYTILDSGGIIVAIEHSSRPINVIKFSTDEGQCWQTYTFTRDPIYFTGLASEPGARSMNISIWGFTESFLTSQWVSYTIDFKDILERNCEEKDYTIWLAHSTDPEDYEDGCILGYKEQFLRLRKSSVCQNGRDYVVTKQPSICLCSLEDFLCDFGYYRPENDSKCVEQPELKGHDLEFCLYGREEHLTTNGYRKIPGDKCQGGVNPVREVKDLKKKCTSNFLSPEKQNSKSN
Method: as §1, §2, §3, §4, §5, §6, §7, §8, §9, §10, §11, §12, §13, §14

h-Sortilin = target: T3, h-Sortilin (Homo sapiens, UniProt Q99523); test: Neurotensin scintillation proximity assay (displacement of [3H]-neurotensin binding); conditions: 150 nM 6his-Sortilin, 5 nM [3H]-Neurotensin; average of at least 2 determinations; read-out: IC50 [3H]Neurotensin SPA
T3 sequence (Q99523 78-831): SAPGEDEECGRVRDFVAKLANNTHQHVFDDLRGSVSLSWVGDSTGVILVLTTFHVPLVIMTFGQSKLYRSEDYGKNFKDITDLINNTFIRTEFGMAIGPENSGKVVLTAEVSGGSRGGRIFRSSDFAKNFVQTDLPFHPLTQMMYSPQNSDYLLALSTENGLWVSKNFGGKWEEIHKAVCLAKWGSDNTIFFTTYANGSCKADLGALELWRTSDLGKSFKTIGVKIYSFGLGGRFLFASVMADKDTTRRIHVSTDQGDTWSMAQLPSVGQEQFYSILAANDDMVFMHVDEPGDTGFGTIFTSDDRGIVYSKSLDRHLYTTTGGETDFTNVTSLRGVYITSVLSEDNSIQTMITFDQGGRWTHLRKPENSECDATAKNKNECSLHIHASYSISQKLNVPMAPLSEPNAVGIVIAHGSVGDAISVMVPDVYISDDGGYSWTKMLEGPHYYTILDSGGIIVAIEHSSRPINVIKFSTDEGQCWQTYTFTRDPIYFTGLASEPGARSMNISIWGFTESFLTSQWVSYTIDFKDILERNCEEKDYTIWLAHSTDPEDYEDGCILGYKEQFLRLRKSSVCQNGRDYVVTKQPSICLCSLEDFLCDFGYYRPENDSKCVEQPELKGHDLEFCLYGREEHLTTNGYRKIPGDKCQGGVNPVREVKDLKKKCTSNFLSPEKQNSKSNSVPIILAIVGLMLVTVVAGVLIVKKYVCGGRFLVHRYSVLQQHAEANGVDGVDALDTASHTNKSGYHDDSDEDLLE
Method: The exemplified compounds of the invention were tested in a Neurotensin (NTS) scintillation proximity assay (SPA). NTS, which is a 13 amino acid neuropeptide, is a sortilin ligand. The IC50 is a measure of the amount of the compound required to inhibit the binding of NTS to sortilin by 50%. The skilled person will recognise that the lower the IC50 value, the less of the compound needed to achieve the desired effect, and as a result, the chances of undesirable off-target effects are reduced.
Compound affinity was determined by measuring the displacement of [3H]-neurotensin binding to h-Sortilin in SPA format. Total volume of 40 µl in 50 mM HEPES pH 7.4 assay buffer containing 100 mM NaCl, 2.0 mM CaCl2, 0.1% BSA and 0.1% Tween-20. Compound pre-incubation for 30 minutes at room temperature with 150 nM of 6his-Sortilin before 5 nM [3H]-Neurotensin and Ni chelate imaging beads (Perkin Elmer) were added, after 6 hours the plate was read on a ViewLux with 360 s exposure time. Dose-response evaluation of compounds was performed with 8 concentrations of drugs (covering 3 decades). IC50 values were calculated by nonlinear regression using the sigmoid concentration-response (variable slope) using CDD Vault software. All values reported are average of at least 2 determinations.

| Kd (Sortilin [1]; Form of Compound Free acid) | Kd (Sortilin [2]; Form of Compound Free acid) | IC50 (h-Sortilin) | Kd (Sortilin [1]; Form of Compound Mesylate salt) | Compound | Kd (Sortilin [2]; Form of Compound Mesylate salt) | Kd (Sortilin [2]; Form of Compound HCl salt) |
| --- | --- | --- | --- | --- | --- | --- |
| 0.241 µM | 0.2 µM | 0.64 µM |  | CN1CCc2cc(CN[C@@H](CCC(C)(C)C)C(=O)O)ccc2C1 [Example 10, (S)-5,5-dimethyl-2-(((2-methyl-1,2,3,4-tetrahydroisoquinolin-6-yl)methyl)amino)hexanoic acid] |  |  |
| 0.299 µM | 0.255 µM | 0.57 µM |  | CC(C)(C)CC[C@H](NCc1ccc2c(c1)CCCN2)C(=O)O [Example 16, (2S)-5,5-dimethyl-2-{[(1,2,3,4-tetrahydroquinolin-6-yl)methyl]amino}hexanoic acid] |  |  |
| 2.28 µM | 1.42 µM | 0.5 µM |  | CC(C)(C)CC[C@H](NCc1ccc2c(c1)CNCC2)C(=O)O [Example 18, (2S)-5,5-dimethyl-2-{[(1,2,3,4-tetrahydroisoquinolin-7-yl)methyl]amino}hexanoic acid] |  |  |
|  | 0.181 µM | 0.28 µM |  | C[C@@H](N[C@@H](CCC(C)(C)C)C(=O)O)c1ccc2c(c1)OCCO2 [Example 51] |  |  |
|  | 0.696 µM | 0.31 µM |  | CC(C)(C)CC[C@H](N[C@H](c1ccc2c(c1)OCCC2)C(F)F)C(=O)O [Example 56] |  |  |
| 0.0703 µM | 0.067 µM | 0.31 µM |  | C[C@@H](N[C@@H](CCC(C)(C)C)C(=O)O)c1ccc2c(c1)NCCC2 [Example 58] |  |  |
|  |  | 0.32 µM | 0.204 µM | C[C@H](N[C@@H](CCC(C)(C)C)C(=O)O)c1ccc2c(c1)CCOC2 [Example 59] | 0.218 µM |  |
|  | 0.144 µM | 0.35 µM |  | C[C@H](N[C@@H](CCC(C)(C)C)C(=O)O)c1ccc2c(c1)OCCO2 [Example 61] |  |  |
|  | 0.193 µM | 0.59 µM |  | CC(C)(C)CC[C@H](N[C@H](c1ccc2c(c1)CCCC2)C(F)F)C(=O)O [Example 71] |  |  |

The remaining lines, values behind:

| Compound | Kd (Sortilin [1]; Form of Compound Free acid) | Kd (Sortilin [2]; Form of Compound Free acid) | IC50 (h-Sortilin) | Kd (Sortilin [1]; Form of Compound Mesylate salt) | Kd (Sortilin [2]; Form of Compound Mesylate salt) | Kd (Sortilin [2]; Form of Compound HCl salt) |
| --- | --- | --- | --- | --- | --- | --- |
| CN1CCOc2cc(CN[C@@H](CCC(C)(C)C)C(=O)O)ccc21 [Example 19, (S)-5,5-dimethyl-2-(((4-methyl-3,4-dihydro-2H-benzo[b][1,4]oxazin-7-yl)methyl)amino)hexanoic acid] | 3.18 µM | 3.72 µM | 0.66 µM |  |  |  |
| CN1CCOc2ccc(CN[C@@H](CCC(C)(C)C)C(=O)O)cc21 [Example 30, (2S)-5,5-dimethyl-2-{[(4-methyl-3,4-dihydro-2H-1,4-benzoxazin-6-yl)methyl]amino}hexanoic acid] | 7.6 µM | 5.07 µM | 0.35 µM |  |  |  |
| C[C@@H](N[C@@H](CCC(C)(C)C)C(=O)O)c1ccc2c(c1)OCO2 [Example 54] |  | 0.105 µM | 0.38 µM |  |  |  |
| CC(C)(C)CC[C@H](NCc1ccc2c(c1)OCO2)C(=O)O [Example 68] |  | 0.163 µM | 0.86 µM |  |  |  |
| C[C@H](N[C@@H](CCC(C)(C)C)C(=O)O)c1ccc2c(c1)OCO2 [Example 70] | 0.116 µM | 0.133 µM | 0.53 µM |  |  |  |
| CC(C)(C)CC[C@H](NCc1cccc2c1CCCO2)C(=O)O [Example 72] |  | 0.613 µM | 1.08 µM |  |  |  |
| CC(C)(C)CC[C@H](NCc1ccnc(Oc2ccccc2)c1)C(=O)O [Example 76] |  | 0.0583 µM | 0.23 µM |  |  |  |
| (2S)-5,5-dimethyl-2-{[(5,6,7,8-tetrahydronaphthalen-2-yl)methyl]amino}hexanoic acid [Example 4] |  | 0.0409 µM | 0.12 µM |  | 0.0425 µM | 0.0517 µM |

From patent EP4342530A1, “SORTILIN MODULATORS” (Insusense ApS, priority 2022, dated 2024)
